Molecular target: T1, 7002 Rubisco (Picosynechococcus sp. PCC 7002, UniProt Q44176)
T1 construct: gene cbbL; C-terminal His6 tag on large subunit; large and small subunits co-expressed with chaperone RbcX from pET30a in E. coli BL21(DE3); hexadecamer; with Ribulose bisphosphate carboxylase small subunit
Experiment: […]-CABP active-site binding assay
Details: labelled compound; active-site titration only

T1 sequence (Q44176 whole entry): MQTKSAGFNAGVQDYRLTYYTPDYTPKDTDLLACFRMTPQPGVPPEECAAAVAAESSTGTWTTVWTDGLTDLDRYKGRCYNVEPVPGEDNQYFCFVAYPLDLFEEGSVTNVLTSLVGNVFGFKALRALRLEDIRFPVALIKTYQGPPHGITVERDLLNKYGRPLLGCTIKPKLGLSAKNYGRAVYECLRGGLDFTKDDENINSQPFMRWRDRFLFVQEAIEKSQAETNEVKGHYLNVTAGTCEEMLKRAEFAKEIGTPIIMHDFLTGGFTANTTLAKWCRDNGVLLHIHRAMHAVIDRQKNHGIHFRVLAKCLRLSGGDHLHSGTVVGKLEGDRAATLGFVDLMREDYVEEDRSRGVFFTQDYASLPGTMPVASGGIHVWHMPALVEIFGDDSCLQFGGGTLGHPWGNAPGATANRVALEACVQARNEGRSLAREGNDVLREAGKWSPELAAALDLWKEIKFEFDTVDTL
T1 sequence (Q44178 whole entry, further chain): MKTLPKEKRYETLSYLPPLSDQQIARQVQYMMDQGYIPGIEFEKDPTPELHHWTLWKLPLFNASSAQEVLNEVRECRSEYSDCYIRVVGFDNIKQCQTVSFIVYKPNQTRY

Structure (SMILES): O=C(O)[C@@](O)(COP(=O)(O)O)[C@H](O)[C@H](O)COP(=O)(O)O [CABP, 2-carboxyarabinitol-1,5-diphosphate]
- 14C-CABP active-site binding assay: Active sites of Rubisco in purified enzymes were determined as reported

Source: PMC10992382, “Discovery of a readily heterologously expressed Rubisco from the deep sea with potential for CO2 capture” (Bioresources and Bioprocessing, 2021)
